Test results from ChEMBL document CHEMBL5096149, “Recent Update on Targeting c-MYC G-Quadruplexes by Small Molecules for Anticancer Therapeutics” (J Med Chem, 2021).

Key:
Quadruplex DNA [1] = test: Binding affinity to c-MYC G-quadruplex DNA (unknown origin) assessed as association constant by fluorescence spectroscopy; type: nucleic-acid assay
Quadruplex DNA [2] = test: Thermal stabilization of c-MYC G-quadruplex DNA (unknown origin) assessed as change in melting temperature at 1:5 ratio by FRET melting assay; type: nucleic-acid assay
HT-1080 = test: Antiproliferative activity against human HT-1080 cells assessed as inhibition of cell growth by celltiter-glo luminescent cell viability assay; type: functional, cell-based
HeLa [3] = test: Antiproliferative activity against human HeLa cells assessed as inhibition of cell growth by XTT assay; type: functional, cell-based
MCF7 = test: Antiproliferative activity against human MCF7 cells assessed as inhibition of cell growth by XTT assay; type: functional, cell-based
Quadruplex DNA [4] = test: Binding affinity to c-MYC G-quadruplex DNA (unknown origin) assessed as association rate constant by isothermal titration calorimetry method; type: nucleic-acid assay
[5] = Antiproliferative activity against human Kidney epithelial cells assessed as inhibition of cell growth by XTT assay; type: toxicity, cell-based
A549 = test: Antiproliferative activity against human A549 cells assessed as inhibition of cell growth by XTT assay; type: functional, cell-based
Quadruplex DNA [6] = test: Binding affinity to human c-MYC G-quadruplex (Pu24T) DNA assessed as first order binding constant by isothermal titration calorimetry method; type: nucleic-acid assay
Quadruplex DNA [7] = test: Binding affinity to human c-MYC G-quadruplex (Pu24T) DNA assessed as second order binding constant by fluorescence spectroscopy; type: nucleic-acid assay
[8] = Cytotoxicity against human HEK cells assessed as inhibition of cell viability incubated for 48 hrs by MTT assay; type: functional, cell-based; conditions: HEK293, 48 h
HeLa [9] = test: Cytotoxicity against human HeLa cells assessed as inhibition of cell viability incubated for 48 hrs by MTT assay; type: functional, cell-based
Quadruplex DNA [10] = test: Binding affinity to human c-MYC G-quadruplex (Pu24T) DNA assessed as second order binding constant by isothermal titration calorimetry method; type: nucleic-acid assay
Quadruplex DNA [11] = test: Binding affinity to human c-MYC G-quadruplex (Pu24T) DNA assessed as first order binding constant by fluorescence spectroscopy; type: nucleic-acid assay
Quadruplex DNA [12] = test: Thermal stabilization of human c-MYC G-quadruplex (Pu24T) DNA assessed as change in melting temperature at 1:2 ratio by circular dichroism spectroscopy; type: nucleic-acid assay

CN(C)c1cccc2c(S(=O)(=O)N(Cc3cn(C(C)(C)C(=O)OC[C@H]4O[C@@H](n5cnc6c(=O)[nH]c(N)nc65)[C@@H]5OC(C)(C)O[C@@H]54)nn3)Cc3cn(C(C)(C)C(=O)OC[C@H]4O[C@@H](n5cnc6c(=O)[nH]c(N)nc65)[C@@H]5OC(C)(C)O[C@@H]54)nn3)cccc12
Ka (Quadruplex DNA [1]): 4.8 10^7/M
ΔTm (Quadruplex DNA [2]): 12.6 °C
IC50 (HT-1080): 18.9 µM

CN(C)CCCOc1cc(C(=O)NCc2cn(-c3cccc(NC(=O)C4CCCN4)c3)nn2)cc(C(=O)NCc2cn(-c3cccc(NC(=O)C4CCCN4)c3)nn2)c1 (configuration not stated)
Ka (Quadruplex DNA [1]): 5.55 10^5/M
IC50 (HeLa [3]): 8.3 µM
IC50 (MCF7): 3.8 µM
ΔTm (Quadruplex DNA [2]): 15 °C
Ka (Quadruplex DNA [4]): 7 10^5/M
IC50 [5]: > 50 µM
IC50 (A549): 9.2 µM

O=c1c(O)c(-c2ccc(O)c(O)c2)oc2cc(O)cc(O)c12 [QUERCETIN]
K (Quadruplex DNA [6]): 1.57 10^7/M
K (Quadruplex DNA [7]): 1.2 10^5/M
IC50 [8]: 0.12 µM
IC50 (HeLa [9]): 4 µM
K (Quadruplex DNA [10]): 8.5 10^5/M
K (Quadruplex DNA [11]): 0.72 10^7/M
ΔTm (Quadruplex DNA [12]): 10.3 °C
